Measurements reported in PubChem BioAssay AID2060486 (Molecular Pharmacology Branch, DTP, NCI, 2025).

System: IGROV1 complex spheroids (HUVEC, MSC), viability % test/control
Assay: Anticancer human tumor IGROV1 cell line growth inhibition [GQUAD];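 also: spheroids exposed to compounds for 7 days before readout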;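 as to viability, T/C: 100% = DMSO vehicle control viability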
Conditions: for IC50: curve of first compound; for viability, T/C: stronger effect = lower value
Method in brief: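 Multi-cell-type spheroids of tumor cells with HUVEC and mesenchymal stem cells, treated with drug combinations. Concentrations descend in half-log steps from near clinical Cmax, or from 10 microM where Cmax is unknown; viability read-out.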

[1] = second compound 0.0316 µM, first compound 0.0316 µM
[2] = second compound 0.0316 µM, first compound 0.1 µM
[3] = second compound 0.0316 µM, first compound 0.316 µM
[4] = second compound 0.0316 µM, first compound 1 µM
[5] = second compound 0.0316 µM, first compound 3.16 µM
[6] = second compound 0.0316 µM, first compound 10 µM
[7] = second compound 0.1 µM, first compound 0.0316 µM
[8] = second compound 0.1 µM, first compound 0.1 µM
[9] = second compound 0.1 µM, first compound 0.316 µM
[10] = second compound 0.1 µM, first compound 1 µM
[11] = second compound 0.1 µM, first compound 3.16 µM
[12] = second compound 0.1 µM, first compound 10 µM
[13] = second compound 0.316 µM, first compound 0.0316 µM
[14] = second compound 0.316 µM, first compound 0.1 µM
[15] = second compound 0.316 µM, first compound 0.316 µM
[16] = second compound 0.316 µM, first compound 1 µM
[17] = second compound 0.316 µM, first compound 3.16 µM
[18] = second compound 0.316 µM, first compound 10 µM
[19] = second compound 1 µM, first compound 0.0316 µM
[20] = second compound 1 µM, first compound 0.1 µM
[21] = second compound 1 µM, first compound 0.316 µM
[22] = second compound 1 µM, first compound 1 µM
[23] = second compound 1 µM, first compound 3.16 µM
[24] = second compound 1 µM, first compound 10 µM
[25] = second compound 3.16 µM, first compound 0.0316 µM
[26] = second compound 3.16 µM, first compound 0.1 µM
[27] = second compound 3.16 µM, first compound 0.316 µM
[28] = second compound 3.16 µM, first compound 1 µM
[29] = second compound 3.16 µM, first compound 3.16 µM
[30] = second compound 3.16 µM, first compound 10 µM
[31] = second compound 10 µM, first compound 0.0316 µM
[32] = second compound 10 µM, first compound 0.1 µM
[33] = second compound 10 µM, first compound 0.316 µM
[34] = second compound 10 µM, first compound 1 µM
[35] = second compound 10 µM, first compound 3.16 µM
[36] = second compound 10 µM, first compound 10 µM

CC(C)n1c(=O)n(C)c2cnc3cc(F)c(-c4ccc(OCCCN5CCCCC5)nc4)cc3c21 + Cc1cnc(CNC(=O)c2c(=O)c3ccc(N4CCCN(C)CC4)nc3n3c2sc2ccccc23)cn1
IC50 (second compound 0.0316 µM): < 0.0316 µM | IC50 (second compound 0.1 µM): < 0.0316 µM | IC50 (second compound 0.316 µM): < 0.0316 µM | IC50 (second compound 1 µM): < 0.0316 µM | IC50 (second compound 3.16 µM): < 0.0316 µM | IC50 (second compound 10 µM): < 0.0316 µM | viability, T/C [1]: 13.7% | viability, T/C [2]: 11.3% | viability, T/C [3]: 10.6% | viability, T/C [4]: 11.4% | viability, T/C [5]: 10.2% | viability, T/C [6]: 11.2% | viability, T/C [7]: 12.4% | viability, T/C [8]: 12.1% | viability, T/C [9]: 12.4% | viability, T/C [10]: 10.7% | viability, T/C [11]: 11.3% | viability, T/C [12]: 7.45% | viability, T/C [13]: 15.1% | viability, T/C [14]: 11.4% | viability, T/C [15]: 11.7% | viability, T/C [16]: 11.4% | viability, T/C [17]: 9.7% | viability, T/C [18]: 8.1% | viability, T/C [19]: 13% | viability, T/C [20]: 12.8% | viability, T/C [21]: 9.09% | viability, T/C [22]: 9.18% | viability, T/C [23]: 9.72% | viability, T/C [24]: 7.74% | viability, T/C [25]: 8.77% | viability, T/C [26]: 9.43% | viability, T/C [27]: 9.15% | viability, T/C [28]: 11.1% | viability, T/C [29]: 10.6% | viability, T/C [30]: 6.66% | viability, T/C [31]: 12.3% | viability, T/C [32]: 7.9% | viability, T/C [33]: 9.45% | viability, T/C [34]: 9.57% | viability, T/C [35]: 8.82% | viability, T/C [36]: 9.01%

CC1COCCN1c1cc(-c2ccnn2C)c2ccnc(-c3ccn[nH]3)c2n1 (centres undefined) + Cc1cnc(CNC(=O)c2c(=O)c3ccc(N4CCCN(C)CC4)nc3n3c2sc2ccccc23)cn1
IC50 (second compound 0.0316 µM): < 0.0316 µM | IC50 (second compound 0.1 µM): < 0.0316 µM | IC50 (second compound 0.316 µM): < 0.0316 µM | IC50 (second compound 1 µM): < 0.0316 µM | IC50 (second compound 3.16 µM): < 0.0316 µM | IC50 (second compound 10 µM): < 0.0316 µM | viability, T/C [1]: 16.8% | viability, T/C [2]: 9.68% | viability, T/C [3]: 7.59% | viability, T/C [4]: 5.06% | viability, T/C [5]: 4.01% | viability, T/C [6]: 2.97% | viability, T/C [7]: 10.3% | viability, T/C [8]: 7.36% | viability, T/C [9]: 6.21% | viability, T/C [10]: 5.27% | viability, T/C [11]: 3.92% | viability, T/C [12]: 4.13% | viability, T/C [13]: 9% | viability, T/C [14]: 7.55% | viability, T/C [15]: 6.04% | viability, T/C [16]: 5.16% | viability, T/C [17]: 4.14% | viability, T/C [18]: 3.5% | viability, T/C [19]: 8.34% | viability, T/C [20]: 6.08% | viability, T/C [21]: 5.92% | viability, T/C [22]: 5.14% | viability, T/C [23]: 3.89% | viability, T/C [24]: 3% | viability, T/C [25]: 7.12% | viability, T/C [26]: 7.74% | viability, T/C [27]: 7.15% | viability, T/C [28]: 5.94% | viability, T/C [29]: 3.88% | viability, T/C [30]: 2.53% | viability, T/C [31]: 6.76% | viability, T/C [32]: 5.78% | viability, T/C [33]: 7.42% | viability, T/C [34]: 3.84% | viability, T/C [35]: 4.68% | viability, T/C [36]: 2.74%
